{"source": "patent US11564913B2", "about": "“Compositions and methods for treating cancer” (Children's Hospital Medical Center, priority 2019, dated 2023)", "key": {"p190-BCR-ABL leukemia": {"system": "p190-BCR-ABL leukemia", "experiment": "p190-BCR-ABL induced B-ALL murine model, osmotic pumps", "format": "in vivo, mice", "from_the_text": "C57Bl/6 mice were commercially obtained (The Jackson Laboratory and Harlan Laboratories) and used as donors and/or recipients of transduction/transplantation models under a protocol approved by The Cincinnati Children's Hospital Medical Center Institutional Animal Care and Use Committee.\nAfter a single wash in PBS, cells were stained with anti-B220 APC-Cy7 antibody. Stained cells were washed once and analyzed by flow cytometry."}, "[1]": {"system": "active GTP-bound Ras in ST8814 cells", "experiment": "Active Ras pull-down with GST-RafRBD", "format": "cell-based", "details": "2 μM", "procedure": "(§1) FIG. 4. IODVA1 inhibits proliferation of cancer model cells. (A) IODVA1 is a potent cell proliferation inhibitor. MCF10A, MCF7, MDA-MB-231, and T47D cells were grown in the presence of the indicated IODVA1 concentrations and counted for 4 or up to 7 days. Each dot and bar is the mean±stdev respectively, of 3 independent experiments, with 2 technical replicates in each experiment. (B) Number of colonies made by MCF7, T47D, and MDA-MB-231 cells at the indicated IODVA1 concentrations. Results shown are mean±stdev of 2 independent experiments with 4 technical replicates each. (C) IODVA1 deactivates Ras at late incubation times. […] Quantification summary of 2 independent experiments is presented in the graph. n.s.—not significant, *-p<0.05, **-p<0.01, ****-p<0.0001. (D) IODVA1 inhibits proliferation of ST8814 cells. ST8814 cells were grown in the presence of the indicated IODVA1 concentrations and counted daily for 4 days. Each dot and bar is the mean and standard deviation respectively, of 3 independent experiments.\nTo check if IODVA1 inhibits Ras activation in cells, applicants determined the levels of active-GTP-bound-Ras in ST88-14 cells treated with IODVA1 (2 μM) or vehicle control at various time points. GST-RafRBD bound glutathione-beads were incubated with ST8814 cell lysates, thoroughly washed, and the protein complex separated on SDS-PAGE. Levels of GTP-bound pan-RAS proteins bound to RafRBD were determined by immunoblotting.\nLevels of active Ras, Rac, Cdc42 and RhoA were determined using the Active Ras Pull-Down and Detection Kit, Active Rac Pull-Down and Detection Kit (Thermo Scientific) and RhoA/Rac1/Cdc4 Pull-down Activation Assay Combo Biochem Kit (Cytoskeleton). Cells were cultured and treated as indicated and lysed in buffer provided by the manufacturer. […] Proteins were resolved by SDS-PAGE, transferred to nitrocellulose and the level of active GTPase relative to input lysate were determined by immunoblotting analysis using the anti-Ras, anti-Rac, anti-Cdc42, or anti-RhoA antibody supplied by the manufacturer."}, "[2]": {"system": "MCF7, T47D, and MDA-MB-231 cells", "experiment": "Colony formation in soft agar, breast cancer cells", "format": "cell-based", "details": "1 and 3 μM", "procedure": "as §1\nApplicants tested IODVA1's ability to inhibit the proliferation of cells harboring activated Ras and therefore its ability to recapitulate the compound obtained from the NCI. […] Cells were grown in growth media containing IODVA1 at concentrations between 0.1 and 10 μM or vehicle control and cell number was counted using the trypan blue exclusion method. […]"}}}
{"smiles": "OC1(c2ccccn2)N=C(Nc2nc3ccccc3[nH]2)N=C1c1ccccn1", "note": "(stereo not shown) [IODVA1, (Z)-2-((1H-benzo[d]imidazol-2-yl)imino)-4,5-di(pyridin-2-yl)-2,5-dihydro-1H-imidazol-5-ol]", "values": [{"measurement": "increase in survival over control group (average)", "setting": "p190-BCR-ABL leukemia; 0.25 mM in subcutaneous osmotic pumps", "result": 10, "unit": "days"}, {"measurement": "survival during therapy", "setting": "p190-BCR-ABL leukemia; 0.5 imatinib, 0.5 IODVA1, 0.25 IODVA1+0.5 mM imatinib, osmotic pumps, 4 weeks", "result": "alive for the 4-week duration of the therapy"}, {"measurement": "residual p190-BCR-ABL expressing leukemic progenitor B-cells (EGFP+/B220+) in peripheral blood", "setting": "p190-BCR-ABL leukemia; mouse, in vivo", "result": "decreased"}, {"measurement": "levels of active Ras versus vehicle control", "setting": "[1]; 24 h", "result": "similar"}, {"measurement": "levels of active Ras versus vehicle control", "setting": "[1]; 48 h", "result": "decrease in active Ras levels is seen"}, {"measurement": "decrease in active Ras levels", "setting": "[1]; 72 h", "result": "very noticeable"}, {"measurement": "number of colonies in soft agar", "setting": "[2]", "result": "significantly decreases"}]}
